These results are taken from the NIST ThermoML archive (doi:10.1016/j.jct.2012.01.013).

Numbers after ± are expanded uncertainties.

The conditions of the first data set: 293.15 K; 101.33 kPa; Liquid; Falling or rolling sphere viscometry.
A word on the viscosity: it is the resistance of a fluid to flow. `CC(=O)[O-].Cn1cc[nH+]c1` [1-methylimidazolium acetate]: the viscosity turned out to be 8.196 ± 0.094 mPa·s.
Same read-out and setting: with `CCCCO` [butan-1-ol] the figure was 2.941 ± 0.064 mPa·s.
For `CO` [methanol], the viscosity worked out at 0.588 ± 0.06 mPa·s.
Same read-out and setting: with `CCCO` [propan-1-ol] the figure was 2.206 ± 0.062 mPa·s.
On the same count and under the same terms, with `O` [water] the figure was 1.002 ± 0.06 mPa·s.

The same data set, now with this note: 293.15 K; 101.33 kPa; Liquid; Vibrating tube method.
Broadly, the mass density is the mass of a sample divided by its volume. `CC(=O)[O-].Cn1cc[nH+]c1` [1-methylimidazolium acetate]: the mass density is listed as 1079.75 ± 0.29 kg/m3.
Regarding `CCCCO` [butan-1-ol], the mass density was 809.77 ± 0.14 kg/m3.
On the same count and under the same terms, the value for `CCO` [ethanol] was 789.48 ± 0.15 kg/m3; that for `CO` [methanol] was 791.22 ± 0.15 kg/m3.
With `CCCO` [propan-1-ol], the mass density amounted to 803.58 ± 0.15 kg/m3.

Still in this data set, the particulars now being: 298.15 K; 101.33 kPa; Liquid; Falling or rolling sphere viscometry.
For the molecule `CC(=O)[O-].Cn1cc[nH+]c1` [1-methylimidazolium acetate], the viscosity is listed as 6.926 ± 0.085 mPa·s.
On to `CCCCO` [butan-1-ol], for which the viscosity is 2.573 ± 0.063 mPa·s.
Turning to `CO` [methanol], the viscosity was found to be 0.551 ± 0.06 mPa·s.
Turning to `CCCO` [propan-1-ol], the viscosity was 1.976 ± 0.062 mPa·s.
On the same count and under the same terms, the value for `O` [water] was 0.891 ± 0.06 mPa·s.

The data set is the same for the next values; noted with them: 298.15 K; 101.33 kPa; Liquid; Vibrating tube method.
`CC(=O)[O-].Cn1cc[nH+]c1` [1-methylimidazolium acetate]: the mass density was 1075.33 ± 0.29 kg/m3.
`CCCCO` [butan-1-ol]: the mass density is given as 805.98 ± 0.14 kg/m3.
Take `CCO` [ethanol]: the mass density was 785.41 ± 0.15 kg/m3.
On the same count and under the same terms, the value for `CO` [methanol] was 786.52 ± 0.15 kg/m3; that for `CCCO` [propan-1-ol] was 799.61 ± 0.15 kg/m3.

Staying with this data set, now noted: 303.15 K; 101.33 kPa; Liquid; Falling or rolling sphere viscometry.
For `CC(=O)[O-].Cn1cc[nH+]c1` [1-methylimidazolium acetate], the viscosity was found to be 5.913 ± 0.079 mPa·s.
Same read-out and setting: with `CCCCO` [butan-1-ol] the figure was 2.264 ± 0.062 mPa·s.
Same read-out and setting: the value for `CO` [methanol] was 0.517 ± 0.06 mPa·s.
In the case of `CCCO` [propan-1-ol], the viscosity is reported as 1.737 ± 0.061 mPa·s.
Take `O` [water]: the viscosity was 0.798 ± 0.06 mPa·s.

The same data set, now with this note: 303.15 K; 101.33 kPa; Liquid; Vibrating tube method.
On to `CC(=O)[O-].Cn1cc[nH+]c1` [1-methylimidazolium acetate], for which the mass density was determined as 1070.89 ± 0.29 kg/m3.
On the same count and under the same terms, with `CCCCO` [butan-1-ol] the figure was 802.08 ± 0.15 kg/m3.
On to `CCO` [ethanol], for which the mass density was 780.65 ± 0.15 kg/m3.
The same measure, in the same setting: the value for `CO` [methanol] was 781.81 ± 0.15 kg/m3; that for `CCCO` [propan-1-ol] was 795.6 ± 0.15 kg/m3.

Staying with this data set, now noted: 308.15 K; 101.33 kPa; Liquid; Falling or rolling sphere viscometry.
For `CC(=O)[O-].Cn1cc[nH+]c1` [1-methylimidazolium acetate], the viscosity stood at 5.069 ± 0.075 mPa·s.
Regarding `CCCCO` [butan-1-ol], the viscosity turned out to be 2.002 ± 0.062 mPa·s.
Consider `CO` [methanol], for which the viscosity was found to be 0.486 ± 0.06 mPa·s.
On the same count and under the same terms, the value for `CCCO` [propan-1-ol] was 1.548 ± 0.061 mPa·s.
On to `O` [water], for which the viscosity is recorded as 0.718 ± 0.06 mPa·s.

Still in this data set, the particulars now being: 308.15 K; 101.33 kPa; Liquid; Vibrating tube method.
As to `CC(=O)[O-].Cn1cc[nH+]c1` [1-methylimidazolium acetate], the mass density worked out at 1066.45 ± 0.28 kg/m3.
With `CCCCO` [butan-1-ol], the mass density turned out to be 798.19 ± 0.15 kg/m3.
The same measure, in the same setting: with `CCO` [ethanol] the figure was 776.31 ± 0.15 kg/m3.
Still for that read-out and setting: with `CO` [methanol] the figure was 777.06 ± 0.15 kg/m3; with `CCCO` [propan-1-ol], 791.51 ± 0.15 kg/m3.

The data set is the same for the next values; noted with them: 313.15 K; 101.33 kPa; Liquid; Falling or rolling sphere viscometry.
With `CC(=O)[O-].Cn1cc[nH+]c1` [1-methylimidazolium acetate], the viscosity is recorded as 4.395 ± 0.071 mPa·s.
On the same count and under the same terms, the value for `CCCCO` [butan-1-ol] was 1.788 ± 0.061 mPa·s; that for `CO` [methanol] was 0.46 ± 0.06 mPa·s; that for `CCCO` [propan-1-ol] was 1.383 ± 0.061 mPa·s.
As to `O` [water], the viscosity is 0.652 ± 0.06 mPa·s.

The data set is the same for the next values; noted with them: 313.15 K; 101.33 kPa; Liquid; Vibrating tube method.
For the molecule `CC(=O)[O-].Cn1cc[nH+]c1` [1-methylimidazolium acetate], the mass density is 1062 ± 0.28 kg/m3.
As for `CCCCO` [butan-1-ol], the mass density is recorded as 794.36 ± 0.15 kg/m3.
Still for that read-out and setting: with `CCO` [ethanol] the figure was 772.08 ± 0.15 kg/m3; with `CO` [methanol], 772.27 ± 0.15 kg/m3.
Regarding `CCCO` [propan-1-ol], the mass density turned out to be 787.39 ± 0.15 kg/m3.
